Measured values as given in ChEMBL document CHEMBL4270635, “HDAC3 is a potential validated target for cancer: An overview on the benzamide-based selective HDAC3 inhibitors through comparative SAR/QSAR/QAAR approaches” (Eur J Med Chem, 2018).

Tests used:
[1] = target: T1, Histone deacetylase 3/Nuclear receptor corepressor 2 (HDAC3/NCoR2) (Homo sapiens, UniProt O15379); experiment: Inhibition of full length human C-terminal His-tagged HDAC3/N-terminal GST-tagged NCOR2 (395 to 489 residues) co-expressed in baculovirus infected sf9 cells using (FAM)-labeled acetylated peptide substrate after 60 mins by caliper microfluidic mobility shift assay
T1 sequence (O15379 whole entry, the tested form may be a part): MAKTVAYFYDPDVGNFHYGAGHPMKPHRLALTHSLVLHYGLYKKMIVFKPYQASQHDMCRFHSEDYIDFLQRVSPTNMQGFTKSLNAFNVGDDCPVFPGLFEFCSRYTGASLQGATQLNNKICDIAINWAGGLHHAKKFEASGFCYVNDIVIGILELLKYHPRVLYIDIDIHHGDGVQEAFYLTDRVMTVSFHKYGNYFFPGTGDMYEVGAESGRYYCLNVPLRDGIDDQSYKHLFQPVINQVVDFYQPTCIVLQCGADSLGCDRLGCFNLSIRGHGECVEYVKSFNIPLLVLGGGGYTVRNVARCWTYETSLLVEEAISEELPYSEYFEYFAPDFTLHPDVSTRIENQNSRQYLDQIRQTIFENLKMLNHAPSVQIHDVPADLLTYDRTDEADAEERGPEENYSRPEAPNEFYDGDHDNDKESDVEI
T1 sequence (Q9Y618 whole entry, further chain, the tested form may be a part): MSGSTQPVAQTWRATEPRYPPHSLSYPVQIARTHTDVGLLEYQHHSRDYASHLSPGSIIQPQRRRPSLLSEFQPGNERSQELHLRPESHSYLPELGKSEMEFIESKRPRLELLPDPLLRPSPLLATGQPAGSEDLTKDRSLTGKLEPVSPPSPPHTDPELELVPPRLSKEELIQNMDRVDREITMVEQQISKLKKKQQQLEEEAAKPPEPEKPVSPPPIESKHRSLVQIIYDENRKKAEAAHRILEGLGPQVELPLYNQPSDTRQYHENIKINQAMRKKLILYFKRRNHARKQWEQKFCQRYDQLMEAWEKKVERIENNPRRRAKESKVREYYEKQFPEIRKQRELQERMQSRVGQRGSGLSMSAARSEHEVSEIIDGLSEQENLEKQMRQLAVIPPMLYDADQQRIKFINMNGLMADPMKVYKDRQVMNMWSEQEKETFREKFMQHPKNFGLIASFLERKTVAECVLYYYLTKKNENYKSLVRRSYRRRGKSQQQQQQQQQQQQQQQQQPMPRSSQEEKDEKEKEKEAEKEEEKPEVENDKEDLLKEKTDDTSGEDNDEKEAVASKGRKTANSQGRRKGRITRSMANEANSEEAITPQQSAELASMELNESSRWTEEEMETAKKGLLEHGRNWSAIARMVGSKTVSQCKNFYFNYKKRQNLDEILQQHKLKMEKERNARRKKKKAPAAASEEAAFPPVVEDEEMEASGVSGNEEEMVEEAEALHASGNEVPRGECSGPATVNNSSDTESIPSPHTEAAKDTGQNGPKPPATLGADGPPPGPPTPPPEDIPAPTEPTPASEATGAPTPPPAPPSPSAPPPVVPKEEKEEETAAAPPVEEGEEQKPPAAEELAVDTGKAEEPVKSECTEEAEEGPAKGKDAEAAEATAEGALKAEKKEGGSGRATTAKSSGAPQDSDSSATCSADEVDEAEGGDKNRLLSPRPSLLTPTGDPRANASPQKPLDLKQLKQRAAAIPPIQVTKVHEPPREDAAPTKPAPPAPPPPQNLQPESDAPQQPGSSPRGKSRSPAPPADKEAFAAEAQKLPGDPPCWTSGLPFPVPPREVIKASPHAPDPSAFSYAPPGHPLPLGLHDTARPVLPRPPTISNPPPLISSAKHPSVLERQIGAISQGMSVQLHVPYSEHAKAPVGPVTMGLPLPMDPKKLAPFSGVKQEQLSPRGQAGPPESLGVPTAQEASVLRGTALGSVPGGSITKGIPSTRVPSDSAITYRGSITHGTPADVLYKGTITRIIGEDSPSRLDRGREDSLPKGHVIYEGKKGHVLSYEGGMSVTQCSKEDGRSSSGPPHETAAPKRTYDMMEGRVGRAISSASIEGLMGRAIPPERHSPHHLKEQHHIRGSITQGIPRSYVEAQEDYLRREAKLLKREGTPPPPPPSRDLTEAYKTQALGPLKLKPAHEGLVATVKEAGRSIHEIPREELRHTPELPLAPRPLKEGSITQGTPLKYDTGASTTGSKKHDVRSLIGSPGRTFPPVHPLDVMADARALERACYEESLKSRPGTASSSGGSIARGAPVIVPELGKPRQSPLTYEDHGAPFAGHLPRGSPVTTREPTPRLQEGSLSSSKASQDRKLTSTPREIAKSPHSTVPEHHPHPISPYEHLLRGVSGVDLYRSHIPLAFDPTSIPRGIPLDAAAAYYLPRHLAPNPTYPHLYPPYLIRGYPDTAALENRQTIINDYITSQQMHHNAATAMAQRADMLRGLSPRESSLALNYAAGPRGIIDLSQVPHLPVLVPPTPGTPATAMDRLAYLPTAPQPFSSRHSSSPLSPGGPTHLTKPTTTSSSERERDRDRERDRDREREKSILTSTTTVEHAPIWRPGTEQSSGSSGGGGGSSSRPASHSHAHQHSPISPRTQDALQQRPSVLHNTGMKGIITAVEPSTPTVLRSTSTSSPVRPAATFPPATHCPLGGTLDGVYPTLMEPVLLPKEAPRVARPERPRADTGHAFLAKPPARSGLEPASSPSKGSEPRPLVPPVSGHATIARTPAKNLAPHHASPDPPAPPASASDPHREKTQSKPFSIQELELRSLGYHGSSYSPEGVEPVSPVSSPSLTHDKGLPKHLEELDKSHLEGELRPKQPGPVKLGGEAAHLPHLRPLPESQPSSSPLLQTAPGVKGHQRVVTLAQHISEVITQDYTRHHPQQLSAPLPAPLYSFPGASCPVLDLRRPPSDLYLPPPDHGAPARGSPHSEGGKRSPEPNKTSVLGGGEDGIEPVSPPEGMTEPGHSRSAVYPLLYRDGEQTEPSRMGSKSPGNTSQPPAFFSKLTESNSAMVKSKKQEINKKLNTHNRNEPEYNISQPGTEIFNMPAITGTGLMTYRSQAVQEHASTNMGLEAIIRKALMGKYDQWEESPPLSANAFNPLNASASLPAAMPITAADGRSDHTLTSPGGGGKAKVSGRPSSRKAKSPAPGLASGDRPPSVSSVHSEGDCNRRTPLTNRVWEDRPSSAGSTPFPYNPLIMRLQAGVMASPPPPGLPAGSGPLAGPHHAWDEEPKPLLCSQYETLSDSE

[2] = target: T1, Histone deacetylase 3/Nuclear receptor corepressor 2 (HDAC3/NCoR2); experiment: biochemical; type: cell-based
Description: Inhibition of His6-tagged HDAC3/SMRT (395 to 489 residues) (unknown origin) co-expressed in baculovirus infected sf9 cells using (FAM)-labeled acetylated peptide substrate after 17 hrs by caliper microfluidic mobility shift assay

Homo sapiens [3] = species: Homo sapiens; experiment: Selectivity ratio of IC50 for HDAC1 (unknown origin) to IC50 for HDAC3 (unknown origin)
Homo sapiens [4] = species: Homo sapiens; experiment: Selectivity ratio of IC50 for HDAC2 (unknown origin) to IC50 for HDAC3 (unknown origin)
Histone deacetylase 3 = Histone deacetylase 3 (Homo sapiens, UniProt O15379); experiment: Inhibition of HDAC3 (unknown origin)
Sequence of Histone deacetylase 3 (O15379 whole entry): as the sequence (O15379 whole entry, the tested form may be a part) above

Homo sapiens [5] = species: Homo sapiens; experiment: Selectivity ratio of IC50 for HDAC4 (unknown origin) to IC50 for HDAC3 (unknown origin)
Homo sapiens [6] = species: Homo sapiens; experiment: Selectivity ratio of IC50 for HDAC6 (unknown origin) to IC50 for HDAC3 (unknown origin)
Homo sapiens [7] = species: Homo sapiens; experiment: Selectivity ratio of IC50 for HDAC7 (unknown origin) to IC50 for HDAC3 (unknown origin)
Homo sapiens [8] = species: Homo sapiens; experiment: Selectivity ratio of IC50 for HDAC8 (unknown origin) to IC50 for HDAC3 (unknown origin)

SMILES	IC50 [1]	IC50 [2]	other results
C[C@@H](C(=O)Nc1ccc(C(=O)Nc2ccc(F)cc2N)cc1)c1ccccc1	210 to 579 nM		
CC[C@@H](C(=O)Nc1ccc(C(=O)Nc2ccc(F)cc2N)cc1)c1ccccc1	60 to 170 nM		
Nc1ccccc1NC(=O)CCCCCCC(=O)Nc1ccc(-c2cn(Cc3ccccc3)nn2)cc1		1500 nM	
CC(C)(C)OC(=O)Nc1cccc(-c2csc(NC(=O)CCCCCCC(=O)Nc3ccccc3N)n2)c1		160 nM	
CCOC(=O)Nc1cccc(-c2csc(NC(=O)CCCCCCC(=O)Nc3ccccc3N)n2)c1		60 nM	
Nc1ccccc1NC(=O)CCCCCCC(=O)NOCc1ccccc1		552 nM	
Nc1ccccc1NC(=O)CCCCCCC(=O)NO		21.1 nM	
CC(=O)Nc1ccc(C(=O)Nc2ccc(F)cc2N)cc1			Ratio IC50 (Homo sapiens [3]): 17; Ratio IC50 (Homo sapiens [4]): 17
CC(=O)Nc1cccc(-c2csc(NC(=O)CCCCCCC(=O)Nc3ccccc3N)n2)c1		30 nM	
CC(C)[C@@H](C(=O)Nc1ccc(C(=O)Nc2ccc(F)cc2N)cc1)c1ccccc1	300 to 1700 nM		
Nc1cc(F)ccc1NC(=O)c1ccc(NC(=O)C2(c3ccccc3)CC2)cn1	1000 nM		
CC[C@H](C(=O)Nc1ccc(C(=O)Nc2ccc(F)cc2N)cc1)c1ccccc1	110 to 530 nM		
Nc1cccc(-c2csc(NC(=O)CCCCCCC(=O)Nc3ccccc3N)n2)c1		60.3 nM	
CC(C)[C@H](C(=O)Nc1ccc(C(=O)Nc2ccc(F)cc2N)cc1)c1ccccc1	80 nM		
C[C@H](C(=O)Nc1ccc(C(=O)Nc2ccc(F)cc2N)cc1)c1ccccc1	130 to 230 nM		
Nc1cc(F)ccc1NC(=O)c1ccc(NC(=O)C2(c3ccccc3)CC2)cc1	200 nM		
C=C1CN(Cc2ccc(C(=O)Nc3ccccc3N)cc2)C(=O)c2ccccc21			IC50 (Histone deacetylase 3): 16 nM; Ratio IC50 (Homo sapiens [3]): 2; Ratio IC50 (Homo sapiens [4]): 2; Ratio IC50 (Homo sapiens [5]): 2; Ratio IC50 (Homo sapiens [6]): 2; Ratio IC50 (Homo sapiens [7]): 2; Ratio IC50 (Homo sapiens [8]): 2
